Here are results for 2 compounds from patent publication US9688639B2, “Solid forms of fungicidal pyrazoles” (E. I. DU PONT DE NEMOURS AND COMPANY, priority 2013, dated 2017).

The structures appear in SMILES notation.

What all share (assay type): physicochemical
Data set [1] can be described thus: Single crystal X-ray diffraction (calculated density). Conditions: from single crystal X-ray data collected at −100° C. How it is done:
Suitable single crystals for polymorph Form A were grown from methanol evaporation. A colorless irregular plate with approximate dimensions of 0.520×0.300×0.060 mm was chosen for data collection and mounted on a polymer loop. Single crystal data was collected using a Bruker Platform goniometer with an Apex-II detector. The diffractometer was equipped with an incident beam monochromator using Mo-Kα radiation (λ=0.71073 Å) and a monocap collimator. The crystals were cooled in a −100° C. nitrogen flow during data collection.
The data were indexed and integrated using the Apex-II suite of programs including Sainplus and SADABS. The monoclinic cell parameters were determined to be: a=7.870(5) Å, b=28.037(16) Å, c=7.976(5) Å, beta=103.875(10) °, volume=1708.6(17) Å^3. The space group was determined to be P21/n. The molecular weight was 412.66 g/mol giving a calculated density of 1.604 g/cm^3, and μ(Mo)=2.59 mm^−1 for Z=4. Data reduction led to 3487 unique data from a two-theta range=5.46 to 52.92°. […]
The data were indexed and integrated using the Apex-II suite of programs including Sainplus and SADABS. The orthorhombic cell parameters were determined to be: a=14.285(3) Å, b=11.464(2) Å, c=20.010(3) Å, volume=3276.9(10) Å^3. The space group was determined to be Pbca. The molecular weight was 412.66 g/mol giving a calculated density of 1.673 g/cm^3, and μ(Mo)=2.70 mm^−1 for Z=8. […]

Data set [2] in a line: Temperature-dependent X-ray powder diffraction (stability with respect to temperature). Conditions: heated from 25° C. at 10° C. per minute; pXRD. How it is done:
To assess the stability of polymorph Form B of Compound 1 with respect to temperature, X-ray powder diffraction patterns were obtained while heating a sample of Form B from 25° C. to above its melting point. The measurement was conducted at the 5-IDD beam line at the Advanced Photon Source synchrotron located at the Argonne National Laboratory (Argonne, Ill., USA). A Differential-Scanning Calorimeter (DSC, Model DSC600, Linkam Scientific Instruments, Tadworth, U.K.) was mounted in vertical orientation to allow insertion of the DSC into the X-ray beam. The DSC was positioned in the beam line to accept a 100-200 μm square beam under high vacuum. The standard quartz window was replaced with polyimide film (Kapton®, 8 μm thickness, DuPont, Wilmington, Del., USA). An internal thermocouple was installed for temperature recording. A circular charged couple device (CCD) detector (Model Mar165, 165 mm diameter, Marresearch GmbH, Norderstedt, Germany) was used to detect the X-rays scattered from the sample. The detector was equipped with an aluminum cone that covered the detector and extended 100 mm from the face of the detector. This cone was equipped with a beam stop support and 5×3 mm lead beam stop. The cone was continuously purged with helium to minimize air scattering. […]

Data set [3] in a line: Differential Scanning Calorimetry. The following applies: DSC, heated at 2° C./min. How it is done:
Differential Scanning Calorimetry was used to study the crystalline phases of various samples of Compound 1. Data were obtained with a TA Instruments Q20-1220 Differential Scanning Calorimeter (V24.2 Build 107) using a standard cell (FC-03859). Samples were prepared by weighing between 4 and 5 mg of Compound 1 in a gold plated pan (Fauske and Associates, LLC, Burr Ridge, Ill.; part number DSC-M20). The corresponding lid was crimped tightly to the pan and the assembled crucible was inserted into the calorimeter. An empty crucible of the same type was prepared the same way and inserted as the reference. After the instrument was initialized, the sample was first equilibrated at 25° C. and then heated at 2° C./min to a maximum temperature of 225° C.
On the technique in general: Differential scanning calorimetry records heat flow against a reference as temperature is scanned.

For `Cc1nn(C)c(Nc2c(F)cccc2Cl)c1-c1ccc(F)cc1Br` [polymorph Form A, 4-(2-bromo-4-fluorophenyl)-N-(2-chloro-6-fluorophenyl)-1,3-dimethyl-1H-pyrazol-5-amine], the calculated density in data set [1] was 1.604 g/mL.

`Cc1nn(C)c(Nc2c(F)cccc2Cl)c1-c1ccc(F)cc1Br` [polymorph Form B, 4-(2-bromo-4-fluorophenyl)-N-(2-chloro-6-fluorophenyl)-1,3-dimethyl-1H-pyrazol-5-amine]: in data set [2], the “temperature until which the form persists before it converts to polymorph Form A” value was found to be 138 °C. Besides, the calculated density in data set [1] was 1.673 g/mL. Besides, in data set [3], the “broad endotherm signal maximum (transition of Form B to Form A)” value was “about 148 °C”. This compound also came in with a heat of transition in data set [3] (Form B to Form A) of 12 J/g.
